Test results published in patent publication US20140140951A1, “D-Alanine Ester of Rp-Nucleoside Analog” (priority 2012, published 2014).

Tests used:
HCV genotype 1b replicon = assay: HCV replicon assay (luciferase reporter); type: cell-based; conditions: Hepatitis C virus; Zluc (Huh-7-derived) cells, 72 hours
Protocol: Huh-7-derived cell line (Zluc) that harbors an HCV genotype 1b replicon and a luciferase reporter gene was grown in Dulbecco's Modified Eagle Medium (DMEM) supplemented with 10% fetal bovine serum, 2 mM GlutaMAX, 1% MEM nonessential amino acids, 100 IU/mL penicillin, 100 μg/mL streptomycin, and 0.5 mg/mL Geneticin® (G418). For dose response testing the cells were seeded in 96-well plates at 7.5×10^3 cells per well in a volume of 50 μL, and incubated at 37° C./5% CO2. Drug solutions were made up freshly in Huh-7 media as 2× stocks. […] were prepared from these stocks in DMEM without G418. At least three hours after Zluc cells were seeded, drug treatment was initiated by adding 50 μL of drug dilutions to the plates in duplicate. Final concentrations of drug ranged from 100 μM to 0.0000512 μM. Cells were then incubated at 37° C./5% CO2. […] For this, media was removed from the plates via gentle tapping. Fifty microliters of ONE-glo luciferase assay reagent was added to each well. The plates were shaken gently for 3 min at room temperature and luminescence was measured on a Victor^3 V 1420 multilabel counter (Perkin Elmer) with a 1 second read time using a 700 nm cut-off filter. The EC50 values were calculated from dose response curves from the resulting best-fit equations determined by Microsoft Excel and XLfit 5.2 software. […]

[1] = Cytotoxicity evaluation (CellTiter-Blue cell viability); type: cell-based; conditions: human, Zluc cells (HCV replicon cells)
Protocol: For cytotoxicity evaluation, Zluc cells were treated with compound as described herein, and cell viability was monitored using the CellTiter-Blue Cell Viability Assay (Promega) by adding 20 μL of the assay solution to each well. The plates were then incubated at 37° C./5% CO2 for at least 3 hours. Fluorescence was detected in plates using excitation and emission wavelengths of 531 and 595 nm, respectively, in a Victor^3 V 1420 multilabel counter (Perkin Elmer) and CC50 values were determined using Microsoft Excel and XLfit 5.2 software.

[2] = Stability in liver microsomes; type: in vitro ADME, human; conditions: 10 μM, 1.0 mg/mL protein, NADPH, 60 min
Protocol: (§1) Stability of test compounds was determined in subcellular fractions (microsomes and S9) of human liver and intestine in duplicate for each matrix. Pooled liver and intestinal microsomal, intestinal and liver S9 proteins (1.0 mg/mL), suspended in incubation buffer (100 mM potassium phosphate, pH 7.4, 5 mM MgCl2, and 0.1 mM EDTA), were preincubated for 5 min at 37° C. with 10 μM of a test compound from a 10 mM stock solution in DMSO (final DMSO concentration was 0.1%); the reaction was initiated by the addition of NADPH (3 mM final concentration). At specific times (0 and 60 min), 0.1 mL samples were taken and the reaction terminated by the addition of 4 volumes of stop solution (acetonitrile with 500 ng/mL carbutamide as an internal standard). The samples were vortexed for 30 sec and then centrifuged at 16,000 g for 10 min. Aliquots of supernatants (100 μL each) were transferred to 96 deep-well plates preloaded with 100 μL distilled water and analyzed after mixing by LC-MS/MS. The MS peak area ratio of the test compound versus the internal standard was calculated and percent unchanged test compound over 60 minutes was calculated using this ratio.

[3] = Stability in intestinal microsomes; type: in vitro ADME, human; conditions: 10 μM, 1.0 mg/mL protein, NADPH, 60 min
Protocol: as §1

[4] = Liver pharmacokinetics (triphosphate) following a single oral dose in CD-1 mice; type: in vivo; conditions: single oral dose 10 mg/kg for I or 25 mg/kg for II in PEG 200, CD-1 male mice
Protocol: Liver samples were analyzed for the active species 2′-methyl-2′-fluorouridine triphosphate (2′-Me-2′-F—U TP) by LC-MS/MS. […] Internal standard solution was added to the homogenate followed by neutralization with 20% ammonium hydroxide solution and addition of 500 μL 1% formic acid. The tissue samples were extracted by weak anion exchange solid phase extraction (SPE). Post extraction, the eluates were evaporated under nitrogen, followed by reconstitution before injection onto the LC-MS/MS system. […] The calibration range was 10 to 10000 pmol/mL in mouse liver homogenate (50 to 50000 pmol/g of mouse liver).

Row | Compound | EC50 (HCV genotype 1b replicon) [µM] | CC50 at 72 h [1] [µM] | Stability (percent remaining) HLM (1 hr) [2] | Stability (percent remaining) HIM (1 hr) [3] | Ms Liver 2′-Me-2′-F-U TP AUC (pmol · hr/g at 1 μmol/kg) [4]
1 | CC(C)OC(=O)[C@@H](C)N[P@@](=O)(OC[C@H]1O[C@@H](n2ccc(=O)[nH]c2=O)[C@](C)(F)[C@@H]1O)Oc1ccccc1 [Compound (Ia), D-Alanine, N—((RP,2′R)-2′-deoxy-2′-fluoro-2′-methyl-P-phenyl-5′-uridylyl)-, 1-methylethyl ester] | > 10 | > 50 | ++++ (60% < ++++ ≦ 80%) | +++++ (80% < +++++) | +++++ (1600 < +++++)
2 | CC(C)OC(=O)[C@@H](C)N[P@](=O)(OC[C@H]1O[C@@H](n2ccc(=O)[nH]c2=O)[C@](C)(F)[C@@H]1O)Oc1ccccc1 [Compound (Ib)] | > 10 | > 50 | +++++ (80% < +++++) | +++++ (80% < +++++) | +++ (400 < +++ ≦ 1000)
